Values quoted from earlier work as cited in patent US10948221B1 (priority 2020, dated 2021).

System: rat
Conditions: in vivo

| Compound | LD50 (oral-rat; mg/kg) |
| --- | --- |
| CN.Cl [CH3NH3Cl] | 1600 mg/kg |
| [F-].[Na+] [NaF] | 52 mg/kg |
| NH4NO3 | 2217 mg/kg |
| [K+].[O-][Cl+3]([O-])([O-])[O-] [KClO4] | 100 mg/kg |
| O=N[O-].[Ag+] [AgNO2] | Toxic |
| K2SO4 [Solute K2SO4] | 6600 mg/kg |
| KMnO4 | 1090 mg/kg |
| [Na+].[O-][Cl+2]([O-])[O-] [NaClO3] | 1200 mg/kg |
| MgSO4•7H2O | 2840 mg/kg |
| O=N[O-].[K+] [KNO2] | 250 mg/kg |
| N#C[O-].[K+] [KCNO] | 841 mg/kg |
| [K+].[O-][Cl+2]([O-])[O-] [KClO3] | 1870 mg/kg |
| AgNO3 | Toxic |
| BaCl2•2H2O | 118 mg/kg |
| [Na+].[O-][Cl+3]([O-])([O-])[O-] [NaClO4] | 2100 mg/kg |
| Na3PO4 | 7400 mg/kg |
| O=N[O-].[Na+] [NaNO2] | 180 mg/kg |
| KIO3 | 136 mg/kg |
